In the supplement of paper PMC8671470:
± gives the standard deviation of the averaged measurements.

System: HL-60
Assay: cell viability (% survival relative to DMSO control); higher = less cytotoxic
Conditions: 0.1 µM; 72 h; co-treatment: pictilisib 100 nM
Procedure, shortened: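 Area under the curve, where listed, was derived from four-parameter log-logistic fits with drc and PharmacoGx. These fits used CellTiter-Glo viability from HL-60 cells in RPMI 1640 with 10% FBS, normalised to DMSO wells and wells holding 10 μM proteasome inhibitor. The full library was rescreened on 384-well plates in duplicate at five tenfold concentrations, 1–10,000 nM, with DMSO or 100 nM of one of three metabolic inhibitors, for 72 h at 37 °C, 5% CO2.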

In order of rising cell viability:
1. Cc1cc(O)c2c(c1)C(=O)c1cc(O)cc(O)c1C2=O [Emodin]  97.4 ± 1.4%
2. Cc1nc(-c2ccc(OCC(C)C)c(C#N)c2)sc1C(=O)O [Febuxostat]  107 ± 7.7%
3. N#Cc1ccc(C2CCCc3cncn32)cc1 (centres undefined) [Fadrozole]  113 ± 24%

Same assay, conditions: 1 µM; 72 h; co-treatment: AZD3965 100 nM

In order of falling cell viability:
1. OCCN(CCO)c1nc(N2CCCCC2)c2nc(N(CCO)CCO)nc(N3CCCCC3)c2n1 [Dipyridamole]  102 ± 6.6%
2. O[C@H]1[C@H](O)[C@@H](O)CN2CC[C@H](O)[C@H]12 [Castanospermine]  101 ± 8%
3. O=NN(CCCl)C(=O)NCCCl [Carmustine]  98.8 ± 5.9%
4. Cc1nc(-c2ccc(OCC(C)C)c(C#N)c2)sc1C(=O)O [Febuxostat]  98.3 ± 3%
5. C=C1C(=O)O[C@H](CCCCCCCC)[C@H]1C(=O)O [C75]  97.8 ± 1.8%
6. Cc1cc(O)c2c(c1)C(=O)c1cc(O)cc(O)c1C2=O [Emodin]  97.585 ± 0.0084%
7. N#Cc1ccc(C2CCCc3cncn32)cc1 (centres undefined) [Fadrozole]  96.8 ± 2.8%
8. O=C(Cc1cccc(OC(F)(F)F)c1)Nc1ccc(CCCCc2nnc(NC(=O)Cc3ccccn3)s2)nn1 [CB-839]  93.2 ± 6.7%
9. N=C(N)c1ccc(N=NNc2ccc(C(=N)N)cc2)cc1 [Diminazene]  93.1 ± 5.5%
10. CN(C)CCNC(=O)c1cccn2c(=O)c3cc4ccccc4cc3nc12 [Bmh-21]  91.9 ± 6.7%
11. O=C(/C=C/c1cccnc1)NCCCCC1CCN(C(=O)c2ccccc2)CC1 [Daporinad]  0.351 ± 0.32%

Same assay, conditions: 1 µM; 72 h; co-treatment: DMSO vehicle

In order of rising cell viability:
1. O=C(/C=C/c1cccnc1)NCCCCC1CCN(C(=O)c2ccccc2)CC1 [Daporinad]  0.816 ± 0.52%
2. O=C(Cc1cccc(OC(F)(F)F)c1)Nc1ccc(CCCCc2nnc(NC(=O)Cc3ccccn3)s2)nn1 [CB-839]  93.6 ± 3.5%
3. Cc1nc(-c2ccc(OCC(C)C)c(C#N)c2)sc1C(=O)O [Febuxostat]  95.6 ± 1.8%
4. O=NN(CCCl)C(=O)NCCCl [Carmustine]  97.8 ± 1%
5. CN(C)CCNC(=O)c1cccn2c(=O)c3cc4ccccc4cc3nc12 [Bmh-21]  98.4 ± 3.1%
6. O[C@H]1[C@H](O)[C@@H](O)CN2CC[C@H](O)[C@H]12 [Castanospermine]  98.7 ± 4.9%
7. OCCN(CCO)c1nc(N2CCCCC2)c2nc(N(CCO)CCO)nc(N3CCCCC3)c2n1 [Dipyridamole]  100 ± 7%
8. N#Cc1ccc(C2CCCc3cncn32)cc1 (centres undefined) [Fadrozole]  100 ± 0.66%
9. N=C(N)c1ccc(N=NNc2ccc(C(=N)N)cc2)cc1 [Diminazene]  101.22 ± 0.055%
10. C=C1C(=O)O[C@H](CCCCCCCC)[C@H]1C(=O)O [C75]  102 ± 5.6%
11. Cc1cc(O)c2c(c1)C(=O)c1cc(O)cc(O)c1C2=O [Emodin]  102.6 ± 0.14%

Same assay, conditions: 1 µM; 72 h; co-treatment: GSK2194069 100 nM

In order of falling cell viability:
1. N#Cc1ccc(C2CCCc3cncn32)cc1 (centres undefined) [Fadrozole]  112 ± 3%
2. C=C1C(=O)O[C@H](CCCCCCCC)[C@H]1C(=O)O [C75]  100 ± 1.4%
3. N=C(N)c1ccc(N=NNc2ccc(C(=N)N)cc2)cc1 [Diminazene]  100.3 ± 0.82%
4. O=NN(CCCl)C(=O)NCCCl [Carmustine]  97.5 ± 2.7%
5. Cc1nc(-c2ccc(OCC(C)C)c(C#N)c2)sc1C(=O)O [Febuxostat]  95.2 ± 2.4%
6. CN(C)CCNC(=O)c1cccn2c(=O)c3cc4ccccc4cc3nc12 [Bmh-21]  94.5 ± 5.6%
7. O[C@H]1[C@H](O)[C@@H](O)CN2CC[C@H](O)[C@H]12 [Castanospermine]  94.2 ± 4.3%
8. O=C(Cc1cccc(OC(F)(F)F)c1)Nc1ccc(CCCCc2nnc(NC(=O)Cc3ccccn3)s2)nn1 [CB-839]  94.1 ± 6.3%
9. OCCN(CCO)c1nc(N2CCCCC2)c2nc(N(CCO)CCO)nc(N3CCCCC3)c2n1 [Dipyridamole]  82 ± 9%
10. Cc1cc(O)c2c(c1)C(=O)c1cc(O)cc(O)c1C2=O [Emodin]  74.7 ± 24%
11. O=C(/C=C/c1cccnc1)NCCCCC1CCN(C(=O)c2ccccc2)CC1 [Daporinad]  0.71 ± 0.089%

Same assay, conditions: 1 µM; 72 h; co-treatment: pictilisib 100 nM

In order of rising cell viability:
1. O=C(/C=C/c1cccnc1)NCCCCC1CCN(C(=O)c2ccccc2)CC1 [Daporinad]  0.651 ± 0.56%
2. O=C(Cc1cccc(OC(F)(F)F)c1)Nc1ccc(CCCCc2nnc(NC(=O)Cc3ccccn3)s2)nn1 [CB-839]  71.08 ± 0.63%
3. CN(C)CCNC(=O)c1cccn2c(=O)c3cc4ccccc4cc3nc12 [Bmh-21]  85.7 ± 13%
4. Cc1cc(O)c2c(c1)C(=O)c1cc(O)cc(O)c1C2=O [Emodin]  89.4 ± 7.9%
5. O[C@H]1[C@H](O)[C@@H](O)CN2CC[C@H](O)[C@H]12 [Castanospermine]  92.4 ± 2%
6. O=NN(CCCl)C(=O)NCCCl [Carmustine]  93.7 ± 4.2%
7. Cc1nc(-c2ccc(OCC(C)C)c(C#N)c2)sc1C(=O)O [Febuxostat]  95.4 ± 1.8%
8. N=C(N)c1ccc(N=NNc2ccc(C(=N)N)cc2)cc1 [Diminazene]  97.2 ± 1.2%
9. OCCN(CCO)c1nc(N2CCCCC2)c2nc(N(CCO)CCO)nc(N3CCCCC3)c2n1 [Dipyridamole]  99.7 ± 18%
10. C=C1C(=O)O[C@H](CCCCCCCC)[C@H]1C(=O)O [C75]  103 ± 4.5%
11. N#Cc1ccc(C2CCCc3cncn32)cc1 (centres undefined) [Fadrozole]  113 ± 6.1%

Same assay, conditions: 10 µM; 72 h; co-treatment: AZD3965 100 nM

In order of falling cell viability:
1. OCCN(CCO)c1nc(N2CCCCC2)c2nc(N(CCO)CCO)nc(N3CCCCC3)c2n1 [Dipyridamole]  106 ± 4.1%
2. C=C1C(=O)O[C@H](CCCCCCCC)[C@H]1C(=O)O [C75]  102 ± 7.2%
3. O=NN(CCCl)C(=O)NCCCl [Carmustine]  100.8 ± 0.83%
4. O[C@H]1[C@H](O)[C@@H](O)CN2CC[C@H](O)[C@H]12 [Castanospermine]  101 ± 3.6%
5. N=C(N)c1ccc(N=NNc2ccc(C(=N)N)cc2)cc1 [Diminazene]  101 ± 8.5%
6. Cc1cc(O)c2c(c1)C(=O)c1cc(O)cc(O)c1C2=O [Emodin]  98.7 ± 2.1%
7. N#Cc1ccc(C2CCCc3cncn32)cc1 (centres undefined) [Fadrozole]  98.7 ± 3%
8. Cc1nc(-c2ccc(OCC(C)C)c(C#N)c2)sc1C(=O)O [Febuxostat]  98.16 ± 0.3%
9. O=C(Cc1cccc(OC(F)(F)F)c1)Nc1ccc(CCCCc2nnc(NC(=O)Cc3ccccn3)s2)nn1 [CB-839]  71.4 ± 1%
10. CN(C)CCNC(=O)c1cccn2c(=O)c3cc4ccccc4cc3nc12 [Bmh-21]  48.8 ± 15%
11. O=C(/C=C/c1cccnc1)NCCCCC1CCN(C(=O)c2ccccc2)CC1 [Daporinad]  0.166 ± 0.62%

Same assay, conditions: 10 µM; 72 h; co-treatment: DMSO vehicle

In order of rising cell viability:
1. O=C(/C=C/c1cccnc1)NCCCCC1CCN(C(=O)c2ccccc2)CC1 [Daporinad]  0.766 ± 0.1%
2. CN(C)CCNC(=O)c1cccn2c(=O)c3cc4ccccc4cc3nc12 [Bmh-21]  74.2 ± 28%
3. O=C(Cc1cccc(OC(F)(F)F)c1)Nc1ccc(CCCCc2nnc(NC(=O)Cc3ccccn3)s2)nn1 [CB-839]  88.7 ± 10%
4. O[C@H]1[C@H](O)[C@@H](O)CN2CC[C@H](O)[C@H]12 [Castanospermine]  101 ± 1.6%
5. C=C1C(=O)O[C@H](CCCCCCCC)[C@H]1C(=O)O [C75]  102 ± 4.7%
6. O=NN(CCCl)C(=O)NCCCl [Carmustine]  105 ± 3.5%
